# What was measured:
# [1] = tested on: cancer cells; conditions: cited from earlier work
# [2] = tested on: cancer cells; assay: Effect on cell proliferation at 24H and 48H; assay type: cell-based; conditions: 24H and 48H (figure)
# Description: (§1) FIG. 1 represents the effect of different concentrations of Castaline on apoptosis at 24H and 48 H and cell proliferation at 24H and 48H.
# (§2) FIG. 2 represents the effect of different concentrations of Vescalene on apoptosis at 24H and 48 H and cell proliferation at 24H and 48H.
# (§3) FIG. 3 represents the effect of different concentrations of Castalagine on apoptosis at 24H and 48H and cell proliferation at 24H and 48H.
# (§4) FIG. 4 represents the effect of different concentrations of Acutissimine on apoptosis at 24H and 48H and cell proliferation at 24H and 48H.
# [3] = tested on: cancer cells; assay: Pro-apoptotic activity (apoptosis at 24H and 48H); assay type: cell-based; conditions: different concentrations, 24H and 48H (figure)
# Description: as §1, §2, §3, §4
# [4] = tested on: DNA topoisomerase II; assay: Inhibition of DNA topoisomerase II (decatenation); assay type: biochemical
# Description: Inhibition of DNA Topoisomerase II
Substance,proliferation of cancer cells with subtoxic doses (background statement) [1],effect on cell proliferation with subtoxic doses [2],pro-apoptotic activity [3],Inhibition of decatenation (%) ([4]; compound concentration 1 μm),Inhibition of decatenation (%) ([4]; compound concentration 10 μm)
epiacutissamine A,stimulate the proliferation of cancer cells,,,,
Acutissimine A [reference compound],stimulate the proliferation of cancer cells,increases cell proliferation,,,
Vescalene,,does not increase cell proliferation in a noteworthy manner,has a pro-apoptotic activity,78.8%,97.3%
epiacutissamine B,stimulate the proliferation of cancer cells,,,,
Vescaline,,,,95.5%,100%
acutissimine B,stimulate the proliferation of cancer cells,,,,
Castalagine [reference compound],stimulate the proliferation of cancer cells,increases cell proliferation,,,
Castaline,,does not increase cell proliferation in a noteworthy manner,has a pro-apototic activity,87.9%,67.0%
vescalagine,stimulate the proliferation of cancer cells,,,,
